Tests used:
[1] = system: rat; details: Combined chronic toxicity/carcinogenicity; fischer; Oral; Feed; dose end: 104 week; group: systemic; systemic / pathology microscopic / stomach / adenocarcinoma + systemic / pathology microscopic / stomach / adenoma + systemic / in life …
[2] = system: mouse; details: Carcinogenicity; b6c3f1; Oral; Feed; dose end: 96 week; group: systemic; systemic / pathology microscopic / stomach / adenoma + systemic / in life observation / body weight / body weight + systemic / in life …
[3] = system: rat; details: Prenatal developmental toxicity study, sprague dawley, Inhalation, Whole-Body, dose end: 15 GD, group: maternal
[4] = system: rat; details: Multigenerational reproductive toxicity study, sprague dawley, Inhalation, Whole-Body, dose end: 2 generation
[5] = system: rat; details: Multigenerational reproductive toxicity study, other, Oral, Feed, dose end: 2 generation
[6] = system: dog; details: Chronic toxicity, beagle, Oral, Feed, dose end: 24 month, group: systemic
[7] = system: rabbit; details: Prenatal developmental toxicity study, other, Oral, Gavage/Intubation, dose end: 18 GD
[8] = system: mouse; details: Carcinogenicity; other; Oral; Feed; dose end: 21 month; group: systemic; systemic / pathology microscopic / liver / hypertrophy
[9] = system: rat; details: Prenatal developmental toxicity study, sprague dawley, Oral, Gavage/Intubation, dose end: 15 GD
[10] = system: rat; details: Prenatal developmental toxicity study; sprague dawley; Oral; Gavage/Intubation; dose end: 15 GD; group: developmental; developmental / developmental malformation / bone / absent
[11] = system: mouse; details: Combined chronic toxicity/carcinogenicity, Oral, Feed, dose end: 2 year, group: systemic
[12] = system: rat; details: Prenatal developmental toxicity study, sprague dawley, Oral, Gavage/Intubation, dose end: 15 GD; remark: listed apart in the source
[13] = system: rat; details: Combined chronic toxicity/carcinogenicity, wistar, Oral, Feed, dose end: 2 year, group: systemic
[14] = systemic / in life observation / body weight / body weight gain + systemic / organ weight / spleen / absolute + systemic / organ weight / …
[15] = group: offspring, systemic / in life observation / body weight / offspring (pup) weight
[16] = group: parental, systemic / organ weight / epididymis / absolute + systemic / organ weight / epididymis / relative to body weight + systemic / organ weight…
[17] = group: reproductive, reproductive / reproductive performance / fertility / fertility + reproductive / reproductive performance / pregnancy / pregnancy + …
[18] = group: offspring, developmental / offspring survival late / lactation index / lactation index + developmental / offspring survival late / viability index / …
[19] = group: parental, systemic / organ weight / ovary / relative to body weight + systemic / organ weight / ovary / absolute
[20] = group: reproductive, reproductive / reproductive performance / fertility / fertility
[21] = systemic / clinical chemistry / alanine aminotransferase (alt/sgpt) / alanine aminotransferase (alt/sgpt) + systemic / clinical chemistry / …
[22] = group: developmental, developmental / developmental malformation / bone / incomplete ossification + developmental / developmental malformation / bone / misshapen
[23] = group: developmental, developmental / developmental malformation / bone / incomplete ossification + developmental / developmental malformation / bone / misshapen…
[24] = group: maternal, systemic / in life observation / body weight / body weight gain
[25] = group: developmental, developmental / developmental malformation / bladder / distended + developmental / developmental malformation / bone / supernumerary
[26] = group: maternal, reproductive / reproductive performance / resorptions / resorptions + systemic / in life observation / body weight / body weight gain
[27] = systemic / clinical chemistry / urea nitrogen / urea + systemic / clinical chemistry / creatinine / creatinine + systemic / organ weight / …
[28] = group: developmental, developmental / developmental malformation / bone / [other] + developmental / developmental malformation / bone / full supernumerary + …
[29] = group: maternal, systemic / in life observation / clinical signs / motor activity
[30] = group: maternal, systemic / in life observation / clinical signs / motor activity + systemic / in life observation / body weight / body weight gain
[31] = systemic / pathology microscopic / thyroid gland / adenoma + systemic / in life observation / body weight / body weight + systemic / organ …

Oc1ccccc1O [Catechol]
LEL [1]: 400 mg/kg/day
LOAEL [1]: > 400 mg/kg/day
NEL [1]: < 400 mg/kg/day
NOAEL [1]: ≥ 400 mg/kg/day
LEL [2]: 1200 mg/kg/day
LOAEL [2]: > 1200 mg/kg/day
NEL [2]: < 1200 mg/kg/day
NOAEL [2]: ≥ 1200 mg/kg/day

O=[N+]([O-])c1ccccc1 [Nitrobenzene]
LOAEL [3, 14]: > 40 ppm
NEL [3, 14]: 1 ppm
NOAEL [3, 14]: ≥ 40 ppm
LEL ([3]; systemic / organ weight / spleen / absolute + systemic / organ weight / spleen / relative to body weight): 10 ppm
LEL [4, 15]: 40 ppm
LOAEL [4, 15]: > 40 ppm
NEL [4, 15]: 10 ppm
NOAEL [4, 15]: ≥ 40 ppm
LEL [4, 16]: 40 ppm
LOAEL [4, 16]: > 40 ppm
NEL [4, 16]: 10 ppm
NOAEL [4, 16]: ≥ 40 ppm
NEL ([4]; group: reproductive, reproductive / reproductive performance / fertility / fertility + reproductive / reproductive performance / pregnancy / pregnancy): 10 ppm
LEL [4, 17]: 40 ppm
LOAEL [4, 17]: > 40 ppm
NOAEL [4, 17]: ≥ 40 ppm

CC(C)(C)C(=O)C(Oc1ccc(Cl)cc1)n1cncn1 (stereo not given) [Triadimefon]
LEL [5, 18]: 90 mg/kg/day
LOAEL [5, 18]: 90 mg/kg/day
NEL [5, 18]: 2.5 mg/kg/day
NOAEL [5, 18]: 2.5 mg/kg/day
NOAEL ([5]; group: parental, systemic / organ weight / ovary / relative to body weight + systemic / in life observation / body weight / body weight + systemic / organ …): 2.5 mg/kg/day
LOAEL ([5]; group: parental, systemic / organ weight / ovary / relative to body weight + systemic / organ weight / epididymis / relative to body weight): 90 mg/kg/day
LEL [5, 19]: 2.5 mg/kg/day
NEL [5, 19]: < 2.5 mg/kg/day
LEL [5, 20]: 90 mg/kg/day
LOAEL [5, 20]: 90 mg/kg/day
NEL [5, 20]: 2.5 mg/kg/day
NOAEL [5, 20]: 2.5 mg/kg/day
LOAEL [6, 21]: 47 mg/kg/day
NOAEL [6, 21]: 11.4 mg/kg/day
NEL ([6]; systemic / clinical chemistry / alkaline phosphatase (alp/alk) / alkaline phosphatase (alp/alk) + systemic / clinical chemistry / …): 3.03 mg/kg/day
LEL ([6]; systemic / pathology microscopic / testes / infiltration cellular / epididymides): 11.4 mg/kg/day
LEL [7, 22]: 50 mg/kg/day
LOAEL [7, 22]: 50 mg/kg/day
NEL [7, 23]: 20 mg/kg/day
NOAEL [7, 23]: 20 mg/kg/day
LEL [7, 24]: 120 mg/kg/day
LOAEL [7, 24]: 120 mg/kg/day
NEL [7, 24]: 50 mg/kg/day
NOAEL [7, 24]: 50 mg/kg/day
LEL [8]: 19.6 mg/kg/day
LOAEL [8]: 19.6 mg/kg/day
NEL [8]: < 19.6 mg/kg/day
NOAEL [8]: < 19.6 mg/kg/day
LEL [9, 25]: 90 mg/kg/day
LOAEL [9, 25]: 90 mg/kg/day
NEL [9, 25]: 30 mg/kg/day
NOAEL [9, 25]: 30 mg/kg/day
LEL [9, 26]: 90 mg/kg/day
LOAEL [9, 26]: 90 mg/kg/day
NEL [9, 26]: 30 mg/kg/day
NOAEL [9, 26]: 30 mg/kg/day
LEL [10]: 10 mg/kg/day
LOAEL [10]: 10 mg/kg/day
NEL [10]: 5 mg/kg/day
NOAEL [10]: 5 mg/kg/day
NOAEL [11, 21]: 40 mg/kg/day
LOAEL ([11]; systemic / clinical chemistry / alanine aminotransferase (alt/sgpt) / alanine aminotransferase (alt/sgpt) + systemic / in life observation…): 240 mg/kg/day
LEL [11, 27]: 6.67 mg/kg/day
NEL [11, 27]: < 6.67 mg/kg/day
LOAEL ([12]; group: developmental, developmental / developmental malformation / bone / [other]): 100 mg/kg/day
NEL [12, 28]: 25 mg/kg/day
NOAEL [12, 28]: 50 mg/kg/day
LEL ([12]; group: developmental, developmental / developmental malformation / bone / full supernumerary): 50 mg/kg/day
LEL [12, 29]: 25 mg/kg/day
LOAEL [12, 29]: 25 mg/kg/day
NEL [12, 30]: 10 mg/kg/day
NOAEL [12, 30]: 10 mg/kg/day
LEL ([13]; systemic / hematology / leukocyte (wbc) count differential / leukocyte (wbc) + systemic / organ weight / liver / nos): 22.5 mg/kg/day
NEL ([13]; systemic / hematology / leukocyte (wbc) count differential / leukocyte (wbc) + systemic / organ weight / liver / nos + systemic / clinical …): 3.6 mg/kg/day
LOAEL [13, 31]: 114 mg/kg/day
NOAEL [13, 31]: 16.4 mg/kg/day
